One test deals with MMP-12 (Homo sapiens, UniProt P39900). Nature of the test: MMP-12 of Table 3. Type of test: biochemical. To be noted: unit inferred.
The next test concerns the target T1, recombinant human MMP-2 (Homo sapiens, UniProt P08253).
T1 sequence (P08253 110-660): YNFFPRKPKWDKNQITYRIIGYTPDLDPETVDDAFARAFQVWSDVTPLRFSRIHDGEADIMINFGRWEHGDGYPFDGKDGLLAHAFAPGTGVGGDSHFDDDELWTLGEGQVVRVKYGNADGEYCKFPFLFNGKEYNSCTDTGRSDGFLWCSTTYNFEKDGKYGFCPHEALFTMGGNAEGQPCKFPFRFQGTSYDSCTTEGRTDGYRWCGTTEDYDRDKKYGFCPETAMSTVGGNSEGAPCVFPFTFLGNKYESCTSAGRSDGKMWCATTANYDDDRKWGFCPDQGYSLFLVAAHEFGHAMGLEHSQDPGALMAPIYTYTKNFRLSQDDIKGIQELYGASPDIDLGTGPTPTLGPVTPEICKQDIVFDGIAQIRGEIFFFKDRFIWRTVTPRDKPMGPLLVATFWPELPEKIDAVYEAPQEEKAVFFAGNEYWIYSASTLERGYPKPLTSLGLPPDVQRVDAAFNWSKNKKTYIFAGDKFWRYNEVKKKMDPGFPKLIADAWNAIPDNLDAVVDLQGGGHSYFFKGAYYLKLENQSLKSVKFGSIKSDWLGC
Nature of the test: In vitro fluorescence assay of MMP-2 activity.

Test [1] concerns the target T2, purified recombinant human Aggrecanase-2 (Ag2t-Phe628-Strep) (Homo sapiens, UniProt Q9UNA0).
T2 construct: the form used is denoted as Ag2t-Phe628-Strep (MW=41,737)
T2 sequence (Q9UNA0 262-628): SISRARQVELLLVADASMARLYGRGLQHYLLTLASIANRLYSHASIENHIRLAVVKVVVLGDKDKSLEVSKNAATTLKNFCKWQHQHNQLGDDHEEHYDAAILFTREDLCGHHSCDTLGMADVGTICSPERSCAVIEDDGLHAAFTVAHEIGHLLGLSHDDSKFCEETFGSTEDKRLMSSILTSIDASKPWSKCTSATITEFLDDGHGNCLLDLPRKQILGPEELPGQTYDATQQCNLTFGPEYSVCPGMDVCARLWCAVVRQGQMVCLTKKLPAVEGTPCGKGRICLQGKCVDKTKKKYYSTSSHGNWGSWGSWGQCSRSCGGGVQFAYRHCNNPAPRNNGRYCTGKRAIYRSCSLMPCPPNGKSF
Nature of the test: In vitro fluorescence screen for Aggrecanase-2 inhibitors. Type of test: biochemical. To be noted: Table 3; for IC50: read-out: Agg 2 IC50; for Ki: read-out: Ki Agg2.

Test [2] deals with T3, purified recombinant human Aggrecanase-1 (rAgg1) (Homo sapiens, UniProt O75173).
T3 sequence (O75173 213-837): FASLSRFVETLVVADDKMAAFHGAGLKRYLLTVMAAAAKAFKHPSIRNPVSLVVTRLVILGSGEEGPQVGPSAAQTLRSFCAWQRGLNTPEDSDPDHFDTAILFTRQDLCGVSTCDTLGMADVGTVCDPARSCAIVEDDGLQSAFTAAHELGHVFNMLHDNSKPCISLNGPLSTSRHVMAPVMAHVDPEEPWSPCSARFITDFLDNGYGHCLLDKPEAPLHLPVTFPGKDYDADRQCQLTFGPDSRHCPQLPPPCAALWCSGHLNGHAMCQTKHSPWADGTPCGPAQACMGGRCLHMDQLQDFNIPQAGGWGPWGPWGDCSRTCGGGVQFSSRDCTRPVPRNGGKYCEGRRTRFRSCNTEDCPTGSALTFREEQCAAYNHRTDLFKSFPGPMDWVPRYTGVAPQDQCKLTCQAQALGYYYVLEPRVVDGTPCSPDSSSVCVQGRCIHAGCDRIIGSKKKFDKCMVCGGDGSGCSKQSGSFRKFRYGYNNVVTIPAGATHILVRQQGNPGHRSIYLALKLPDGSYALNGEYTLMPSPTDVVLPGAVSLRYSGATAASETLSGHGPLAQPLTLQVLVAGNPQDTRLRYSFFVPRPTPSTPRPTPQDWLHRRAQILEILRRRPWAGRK
Nature of the test: In vitro fluorescence screen for Aggrecanase-1 inhibitors. To be noted: Table 3; for IC50: read-out: Agg1 IC50; for Ki: read-out: Ki Agg1. Type of test: biochemical.

In another test the target is MMP-8 (Homo sapiens, UniProt P22894). Nature of the test: MMP-8 of Table 3. Type of test: biochemical. To be noted: unit inferred.
MMP-8, sequence (P22894 101-467, species assumed): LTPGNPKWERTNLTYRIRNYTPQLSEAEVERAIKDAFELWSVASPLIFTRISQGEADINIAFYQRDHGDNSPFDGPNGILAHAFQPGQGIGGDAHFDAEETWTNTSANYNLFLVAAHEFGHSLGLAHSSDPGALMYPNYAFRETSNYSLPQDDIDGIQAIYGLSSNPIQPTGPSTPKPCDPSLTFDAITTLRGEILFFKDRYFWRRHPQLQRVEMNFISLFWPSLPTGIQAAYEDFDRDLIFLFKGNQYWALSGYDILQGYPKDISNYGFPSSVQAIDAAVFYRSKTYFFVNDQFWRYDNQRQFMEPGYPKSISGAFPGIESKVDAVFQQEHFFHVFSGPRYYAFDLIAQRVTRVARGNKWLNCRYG

Bounds are passed on as bounds.

Results on seven molecules are retold here after patent US7998965B2, “Glutamate aggrecanase inhibitors” (Wyeth LLC, priority 2005, dated 2011).

MMP-12, sequence (P39900 106-470): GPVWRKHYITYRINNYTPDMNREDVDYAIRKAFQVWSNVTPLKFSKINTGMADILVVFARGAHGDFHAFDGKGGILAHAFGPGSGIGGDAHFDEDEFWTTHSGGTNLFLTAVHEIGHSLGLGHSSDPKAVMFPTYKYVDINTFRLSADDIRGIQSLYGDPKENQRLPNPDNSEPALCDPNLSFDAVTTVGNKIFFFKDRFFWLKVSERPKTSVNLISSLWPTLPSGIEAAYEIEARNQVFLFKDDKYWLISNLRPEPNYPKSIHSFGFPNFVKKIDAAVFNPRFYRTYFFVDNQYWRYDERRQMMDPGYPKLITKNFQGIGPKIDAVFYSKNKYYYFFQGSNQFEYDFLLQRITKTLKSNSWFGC
Protocol for recombinant human MMP-2: A continuous assay was used in which the substrate is a synthetic peptide containing a fluorescent group (7-methoxycoumarin; Mca), which is quenched by energy transfer to a 2,4-dinitrophenyl group. […] The source of enzyme in the assay was the recombinant human MMP-2 (66 kDa; Oncogene Research Products (catalog number PF023 from Calbiochem)). The substrate used was the peptide Mca-PQGL-(3-[2,4-dinitrophenyl]-L-2,3-diaminopropionyl)-AR-OH. The assay buffer consisted of 50 mM Hepes (pH 7.4), 100 mM NaCl, 5 mM CaCl2, and 0.005% Brij-35. […] The plates were then incubated at 30° C. for 15 minutes. The enzymatic reactions were initiated by adding the substrate to a final concentration of 20 μM, and mixing 10 times with a pipette. The final DMSO concentration in the assay was 6.0%.
Plots of the inhibitor concentration vs. the percent inhibition were fit to the following equation: y=(a−d)/[^1+(x/c)^b]+d, a general sigmoidal curve with Hill slope, a to d. x is the inhibitor concentration under test. y is the percent inhibition. a is the limiting response as x approaches zero. As x increases without bound, y tends toward its limit d. c is the inflection point (IC50) for the curve. That is, y is halfway between the lower and upper asymptotes when x=c. b is the slope factor or Hill coefficient.

Consider `CC(C)(Cc1ccccc1)NC(=O)[C@H](CCC(=O)O)NC(=O)c1ccc(-c2ccc(F)cc2)cc1` [N-(1,1-dimethyl-2-phenylethyl)-N^2-[(4′-fluorobiphenyl-4-yl)carbonyl]-L-α-glutamine], for which the half-inhibitory concentration (IC50) (in general, the point on the concentration scale where inhibition reaches its midpoint) is 628 nM at MMP-12; 4000 nM at recombinant human MMP-2; 90 nM in test [1]; under 30 nM in test [2]; 763 nM against MMP-8. The Ki (in general, a dissociation constant, usually derived from enzyme kinetics or from competition with a known ligand) came out at 218 nM in test [1] and 27.2 nM in test [2].
With `CC(C)(Cc1ccc(F)cc1)NC(=O)[C@H](CCC(=O)O)NC(=O)c1ccc(-c2ccc(F)c(F)c2)cc1` [Example 8YYYYYY, N^2-[(3′,4′-difluorobiphenyl-4-yl)carbonyl]-N-[2-(4-fluorophenyl)-1,1-dimethylethyl]-L-α-glutamine], the IC50 at MMP-12 is 365 nM; on recombinant human MMP-2, 4700 nM; in test [1], 30 nM; in test [2], under 30 nM; against MMP-8, 737 nM. Besides, the results for the inhibition constant Ki in test [1] and in test [2] were 160 nM and 13.5 nM, respectively.
For the molecule `CC(C)(Cc1ccc(F)cc1)NC(=O)[C@H](CCC(=O)O)NC(=O)c1ccc(-c2ccsc2)cc1` [Example 8UUUUUUU, N-[2-(4-fluorophenyl)-1,1-dimethylethyl]-N^2-[4-(3-thienyl)benzoyl]-L-α-glutamine], the IC50 at MMP-12 was 410 nM; on recombinant human MMP-2, 5180 nM; in test [1], 60 nM; in test [2], under 30 nM; against MMP-8, 2030 nM. Also, the inhibition constant Ki in test [1] is 60 nM; in test [2], under 3 nM.
Consider `CC(C)(Cc1ccc(F)cc1)NC(=O)[C@H](CCC(=O)O)NC(=O)c1ccc(-c2ccc(Cl)s2)nc1` [N^2-{[6-(5-chloro-2-thienyl)pyridin-3-yl]carbonyl}-N-[2-(4-fluorophenyl)-1,1-dimethylethyl]-L-α-glutamine], for which the IC50 was over 10000 nM against MMP-12; 1300 nM at recombinant human MMP-2; over 300 nM in test [1]; under 30 nM in test [2]; over 5000 nM against MMP-8. Besides, the figures for the Ki in test [1] and in test [2] were 723 nM and 42 nM, respectively.
Turning to `CC(C)(Cc1ccc(F)cc1)NC(=O)[C@H](CCC(=O)O)NC(=O)c1ccc(-c2ccc(F)cc2)s1` [Example 8ZZZZZZZZZ, N-[2-(4-fluorophenyl)-1,1-dimethylethyl]-N^2-{[5-(4-fluorophenyl)-2-thienyl]carbonyl}-L-α-glutamine], the concentration for half-maximal inhibition (IC50) is 2860 nM on MMP-12; 8280 nM at recombinant human MMP-2; 30 to 90 nM in test [1]; under 30 nM in test [2]; 2440 nM against MMP-8. The inhibition constant (Ki) in test [1] was determined as 123 nM; in test [2], 4.7 nM.
Regarding `CC(C)(Cc1ccccc1)NC(=O)[C@H](CCC(=O)O)NC(=O)c1ccc(-c2ccc(Br)s2)cc1` [Example 8OOOOOOOOO, N^2-[4-(5-bromo-2-thienyl)benzoyl]-N-(1,1-dimethyl-2-phenylethyl)-L-α-glutamine], the IC50 on MMP-12 is 372 nM; at recombinant human MMP-2, 718 nM; in test [1] it was about 30 nM; in test [2], under 30 nM; at MMP-8 it was 349 nM. The values for the Ki in test [1] and in test [2] were 66 nM and 2.7 nM, respectively.
As to `CC(C)(Cc1ccccc1)NC(=O)[C@H](CCC(=O)O)NC(=O)c1ccc(-c2ccc(F)cc2)s1` [N-(1,1-dimethyl-2-phenylethyl)-N^2-{[5-(4-fluorophenyl)-2-thienyl]carbonyl}-L-α-glutamine], the IC50 against MMP-12 was 2890 nM; on recombinant human MMP-2, 7240 nM; in test [1], 30 to 300 nM; in test [2] it was under 30 nM; against MMP-8, 2550 nM. For the same molecule, the inhibition constant Ki in test [1] came to 126 nM; in test [2] it was 11.5 nM.
